Measurements: PubChem BioAssay (NCI)
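Five compound concentrations were applied to cells in 96-well plates for 48 hours; endpoints were derived by simple linear interpolation of the resulting dose-response curve. GI50 = concentration required for 50% inhibition of growth. Definition used: TGI = concentration required for complete inhibition of growth.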

Key:
Assay in all cases: NCI-60 cell line screen, 48 h
[1] = tested on: RPMI-8226 leukemia
[2] = tested on: TK-10 renal
[3] = tested on: K-562 leukemia
[4] = tested on: SNB-19 CNS
[5] = tested on: MDA-MB-435
[6] = tested on: MOLT-4 leukemia
[7] = tested on: SNB-75 CNS
[8] = tested on: RXF 393 renal
[9] = tested on: HT29 colon
[10] = tested on: SF-295 CNS
[11] = tested on: OVCAR-3 ovarian
[12] = tested on: HL-60(TB) leukemia
[13] = tested on: UACC-257 melanoma
[14] = tested on: MDA-MB-231 breast
[15] = tested on: HCT-15 colon
[16] = tested on: HS 578T breast
[17] = tested on: IGROV1 ovarian
[18] = tested on: HCT-116 colon
[19] = tested on: HCC-2998 colon
[20] = tested on: SK-OV-3 ovarian
[21] = tested on: EKVX NSCLC
[22] = tested on: CCRF-CEM leukemia
[23] = tested on: SK-MEL-28 melanoma
[24] = tested on: KM12 colon
[25] = tested on: DU-145 prostate
[26] = tested on: UO-31 renal
[27] = tested on: NCI-H226 lung
[28] = tested on: UACC-62 melanoma
[29] = tested on: MCF7 breast
[30] = tested on: ACHN renal
[31] = tested on: PC-3 prostate
[32] = tested on: OVCAR-8 ovarian
[33] = tested on: NCI/ADR-RES ovarian
[34] = tested on: NCI-H460 lung
[35] = tested on: A549 NSCLC
[36] = tested on: T-47D breast
[37] = tested on: HOP-62 NSCLC
[38] = tested on: OVCAR-4 ovarian
[39] = tested on: SK-MEL-2 melanoma
[40] = tested on: SF-268 CNS
[41] = tested on: BT-549 breast
[42] = tested on: 786-0 renal
[43] = tested on: CAKI-1 renal
[44] = tested on: U251 CNS
[45] = tested on: A498 renal
[46] = tested on: SF-539 CNS
[47] = tested on: OVCAR-5 ovarian
[48] = tested on: SR leukemia
[49] = tested on: HOP-92 NSCLC
[50] = tested on: COLO 205 colon
[51] = tested on: SN12C renal
[52] = tested on: M14 melanoma
[53] = tested on: NCI-H522 lung
[54] = tested on: SW-620 colon
[55] = tested on: SK-MEL-5 melanoma
[56] = tested on: MALME-3M melanoma

Fc1ccc(-c2cc3nc(C(Cl)Cl)nc(-c4ccccc4)n3n2)cc1
GI50 [1]: 2.2 µM
TGI [1]: 10 µM
GI50 [2]: 2.13 µM
TGI [2]: 5.26 µM
GI50 [3]: 2.58 µM
TGI [3]: > 100 µM
GI50 [4]: 1.58 µM
TGI [4]: 6.6 µM
GI50 [5]: 1.81 µM
TGI [5]: 3.77 µM
GI50 [6]: 3.18 µM
TGI [6]: > 100 µM
GI50 [7]: 7.55 µM
TGI [7]: > 100 µM
GI50 [8]: 1.21 µM
TGI [8]: 2.55 µM
GI50 [9]: 0.737 µM
TGI [9]: 2.67 µM
GI50 [10]: 2.21 µM
TGI [10]: 5.63 µM
GI50 [11]: 1.53 µM
TGI [11]: 3.1 µM
GI50 [12]: 0.507 µM
TGI [12]: 74.6 µM
GI50 [13]: 2.11 µM
TGI [13]: 4.23 µM
GI50 [14]: 1.76 µM
TGI [14]: 5.76 µM
GI50 [15]: 1.35 µM
TGI [15]: 6.43 µM
GI50 [16]: 3.01 µM
TGI [16]: 9.19 µM
GI50 [17]: 4.08 µM
TGI [17]: > 100 µM
GI50 [18]: 1.68 µM
TGI [18]: 4.84 µM
GI50 [19]: 1.18 µM
TGI [19]: 2.55 µM
GI50 [20]: 2.19 µM
TGI [20]: 5.13 µM
GI50 [21]: 2.04 µM
TGI [21]: 5.58 µM
GI50 [22]: 6.5 µM
TGI [22]: > 100 µM
GI50 [23]: 2.01 µM
TGI [23]: 3.81 µM
GI50 [24]: 1.59 µM
TGI [24]: 4.72 µM
GI50 [25]: 0.411 µM
TGI [25]: 2.33 µM
GI50 [26]: 1.73 µM
TGI [26]: 4.2 µM
GI50 [27]: > 100 µM
TGI [27]: > 100 µM
GI50 [28]: 2.47 µM
TGI [28]: 8.12 µM
GI50 [29]: 0.673 µM
TGI [29]: 7.37 µM
GI50 [30]: 0.777 µM
TGI [30]: 3.02 µM
GI50 [31]: 1.75 µM
TGI [31]: 4.39 µM
GI50 [32]: 1.41 µM
TGI [32]: 3.87 µM
GI50 [33]: 1.43 µM
TGI [33]: 6.21 µM
GI50 [34]: 0.513 µM
TGI [34]: 2.07 µM
GI50 [35]: 1.1 µM
TGI [35]: 2.6 µM
GI50 [36]: 1.86 µM
TGI [36]: 5.99 µM
GI50 [37]: 1.48 µM
TGI [37]: 3.72 µM
GI50 [38]: 2.15 µM
TGI [38]: 7.32 µM
GI50 [39]: 4.46 µM
TGI [39]: > 100 µM
GI50 [40]: 1.81 µM
TGI [40]: 5.21 µM
GI50 [41]: 5.44 µM
TGI [41]: > 100 µM
GI50 [42]: 6.33 µM
TGI [42]: > 100 µM
GI50 [43]: 1.82 µM
TGI [43]: 6.2 µM
GI50 [44]: 0.984 µM
TGI [44]: 2.59 µM
GI50 [45]: 1.81 µM
TGI [45]: 3.55 µM
GI50 [46]: 1.97 µM
TGI [46]: 5.12 µM
GI50 [47]: 2.29 µM
TGI [47]: 6.77 µM
GI50 [48]: 2.17 µM
TGI [48]: > 100 µM
GI50 [49]: 1.9 µM
TGI [49]: 4.81 µM
GI50 [50]: 1.15 µM
TGI [50]: 2.5 µM

COC(=O)c1cccc(NC2=C(Cl)C(=O)c3nc(C)ccc3C2=O)c1
GI50 [1]: 2.14 µM
TGI [1]: 6 µM
GI50 [51]: 2.13 µM
TGI [51]: 5.4 µM
GI50 [2]: 1.78 µM
TGI [2]: 3.19 µM
GI50 [3]: 0.976 µM
TGI [3]: 3.94 µM
GI50 [4]: 10.8 µM
TGI [4]: > 100 µM
GI50 [5]: 2.04 µM
TGI [5]: 4.29 µM
GI50 [6]: 2.53 µM
TGI [6]: 5.68 µM
GI50 [7]: 13.2 µM
TGI [7]: 26.2 µM
GI50 [8]: 1.57 µM
TGI [8]: 2.94 µM
GI50 [9]: 2.32 µM
TGI [9]: 6.09 µM
GI50 [10]: 15.8 µM
TGI [10]: 29.9 µM
GI50 [11]: 1.59 µM
TGI [11]: 3.03 µM
GI50 [12]: 1.53 µM
TGI [12]: 3.64 µM
GI50 [13]: 1.57 µM
TGI [13]: 3 µM
GI50 [52]: 1.84 µM
TGI [52]: 3.42 µM
GI50 [14]: 2.15 µM
TGI [14]: 5.08 µM
GI50 [15]: 1.54 µM
TGI [15]: 3.33 µM
GI50 [16]: 2.46 µM
TGI [16]: 6.26 µM
GI50 [17]: 1.98 µM
TGI [17]: 3.89 µM
GI50 [53]: 1.89 µM
TGI [53]: 4.46 µM
GI50 [54]: 1.97 µM
TGI [54]: 4.03 µM
GI50 [18]: 1.6 µM
TGI [18]: 3.32 µM
GI50 [19]: 2.21 µM
TGI [19]: 4.8 µM
GI50 [20]: 12.5 µM
TGI [20]: 25.2 µM
GI50 [21]: 1.77 µM
TGI [21]: 3.6 µM
GI50 [22]: 2.01 µM
TGI [22]: 5.48 µM
GI50 [23]: 1.96 µM
TGI [23]: 3.71 µM
GI50 [24]: 13.3 µM
TGI [24]: 29.4 µM
GI50 [25]: 1.86 µM
TGI [25]: 3.39 µM
GI50 [26]: 1.44 µM
TGI [26]: 2.79 µM
GI50 [27]: 2.02 µM
TGI [27]: 4.39 µM
GI50 [28]: 2.62 µM
TGI [28]: 8.1 µM
GI50 [29]: 1.89 µM
TGI [29]: 4.61 µM
GI50 [30]: 1.78 µM
TGI [30]: 3.4 µM
GI50 [31]: 2.8 µM
TGI [31]: 10.3 µM
GI50 [55]: 1.8 µM
TGI [55]: 3.34 µM
GI50 [33]: 2.25 µM
TGI [33]: 6.28 µM
GI50 [34]: 18.5 µM
TGI [34]: 41.5 µM
GI50 [35]: 18.1 µM
TGI [35]: 37.9 µM
GI50 [36]: 2.04 µM
TGI [36]: 5.02 µM
GI50 [37]: 15.1 µM
TGI [37]: 29.6 µM
GI50 [38]: 1.42 µM
TGI [38]: 2.89 µM
GI50 [39]: 2.27 µM
TGI [39]: 6.48 µM
GI50 [40]: 2.76 µM
TGI [40]: 9.59 µM
GI50 [41]: 1.68 µM
TGI [41]: 3.09 µM
GI50 [42]: 1.86 µM
TGI [42]: 3.66 µM
GI50 [43]: 1.71 µM
TGI [43]: 3.28 µM
GI50 [44]: 3.27 µM
TGI [44]: 11.8 µM
GI50 [45]: 12 µM
TGI [45]: 24.6 µM
GI50 [46]: 1.75 µM
TGI [46]: 3.27 µM
GI50 [47]: 3.14 µM
TGI [47]: 14.7 µM
GI50 [48]: 1.83 µM
TGI [48]: 4.62 µM
GI50 [56]: 1.95 µM
TGI [56]: 3.76 µM
GI50 [49]: 1.92 µM
TGI [49]: 3.95 µM
GI50 [50]: 1.77 µM
TGI [50]: 3.76 µM
